Laboratory results published in US10081662B2, “Modified relaxin B chain peptides” (The Florey Institute of Neuroscience and Mental Health, priority 2014, dated 2018).
Square brackets hold non-standard residues; d marks the D form. Peptide text beside a SMILES is read from it. hArg = N=C(N)NCCCC[C@H](N)C(=O)O; Agb = N=C(N)NCC[C@H](N)C(=O)O

How the values were obtained:
[1] = target: T1, RXFP1 (Homo sapiens, UniProt Q9HBX9); experiment: cAMP reporter gene assay (pCRE β-galactosidase) in HEK-293T cells transfected with RXFP1; format: cell-based; conditions: HEK-293T cells co-transfected with RXFP1 and pCRE β-galactosidase reporter; n ≥ 3; read-out: RXFP1 cAMP pEC50 (converted)
T1 construct: expressed in transfected cells; host or cells: HEK-293T
T1 sequence (Q9HBX9 1-757): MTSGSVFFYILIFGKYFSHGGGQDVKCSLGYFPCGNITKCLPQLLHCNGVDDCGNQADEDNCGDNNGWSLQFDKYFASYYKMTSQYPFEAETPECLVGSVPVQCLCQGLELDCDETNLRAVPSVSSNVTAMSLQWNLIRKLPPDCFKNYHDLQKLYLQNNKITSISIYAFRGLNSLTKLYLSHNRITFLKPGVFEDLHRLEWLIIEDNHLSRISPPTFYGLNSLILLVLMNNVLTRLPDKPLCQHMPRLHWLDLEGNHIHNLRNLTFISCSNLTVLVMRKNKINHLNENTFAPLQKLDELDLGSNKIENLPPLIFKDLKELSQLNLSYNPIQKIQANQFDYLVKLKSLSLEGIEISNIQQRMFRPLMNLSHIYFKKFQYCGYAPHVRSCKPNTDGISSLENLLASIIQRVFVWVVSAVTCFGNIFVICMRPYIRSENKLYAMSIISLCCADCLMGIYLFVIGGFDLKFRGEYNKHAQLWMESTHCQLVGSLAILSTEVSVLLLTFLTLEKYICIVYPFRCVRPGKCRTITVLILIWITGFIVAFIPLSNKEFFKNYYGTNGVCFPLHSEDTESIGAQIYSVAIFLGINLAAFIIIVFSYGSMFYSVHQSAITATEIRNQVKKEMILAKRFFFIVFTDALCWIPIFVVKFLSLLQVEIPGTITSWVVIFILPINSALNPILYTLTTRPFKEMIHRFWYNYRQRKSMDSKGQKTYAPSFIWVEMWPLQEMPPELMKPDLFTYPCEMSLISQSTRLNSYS
Protocol: The ability of the relaxin-2 B chain peptide derivatives generated in Example 1 to stimulate cAMP response was also evaluated, using a cAMP reporter gene assay as described previously (Scott et al., 2006, J Biol Chem. 281, 34942-34954). HEK-293T cells co-transfected with either RXFP1 or RXFP2, or 7BP cells, and a pCRE β-galactosidase reporter plasmid were plated in 96-well plates. After 24 hours, the co-transfected cells were incubated with increasing concentrations of peptides in parallel to 10 nM of H2 relaxin or INSL3 for RXFP1- or RXFP2-transfected cells respectively. The amount of cAMP-driven β-galactosidase expression in each well was assessed with a colorimetric assay measuring absorbance at 570 nm on a microplate spectrophotometer. Ligand-induced cAMP stimulation was expressed as a percentage of maximal response of H2 relaxin or INSL3 for RXFP1 and RXFP2 cells respectively. Each data point was measured in triplicate and each experiment conducted independently at least three separate times. Statistical differences in pEC50 values were analyzed using one-way ANOVA coupled to Newman Keul's multiple comparison test for multiple group comparisons in GraphPad Prism 6.

[2] = target: T1, RXFP1; experiment: Eu-labelled H2 relaxin competition binding, whole HEK-293T cells stably transfected with RXFP1; conditions: HEK-293T cells stably transfected with RXFP1; competition with Eu-labelled H2 relaxin; mean ± S.E; n ≥ 3; read-out: RXFP1 Eu-H2 pKi (converted)
Protocol: Human embryonic kidney (HEK-293T) cells stably transfected with RXFP1 were cultured in RPMI 1640 medium supplemented with 10% fetal calf serum, 100 μg/ml penicillin, 100 μg/ml streptomycin and 2 mM L-glutamine and plated into 96-well pre-coated with poly-L-lysine for whole cell binding assays. Competition binding experiments were conducted with Eu^3+-labelled H2 relaxin (as per Shabanpoor et al., 2012, Biochem Biophys Res Commun. 420, 253-256) in the absence or presence of increasing concentrations of unlabelled relaxin-2 B chain derivatives. Nonspecific binding was determined with an excess of unlabelled peptides (500 nM H2 relaxin). Fluorescent measurements were recorded at an excitation wavelength of 340 nm and emission of 614 nm on a Victor plate reader (Perkin-Elmer Inc.). […] Statistical differences in pIC50 values were analyzed using one-way analysis of variance coupled to Newman Keul's multiple comparison test for multiple group comparisons in GraphPad Prism 6.

[3] = target: T2, fusion protein comprising the extracellular domain of RXFP1 and the transmembrane domain of CD8 (7BP cells) (Homo sapiens, UniProt Q9HBX9); experiment: Eu-labelled H2 relaxin competition binding to 7BP cells; conditions: 7BP cells; lower affinity than H2 relaxin; FIG. 2B
T2 construct: the extracellular domain of RXFP1 and the transmembrane domain of CD8; expressed in transfected cells
T2 sequence (Q9HBX9 1-409 limits assumed): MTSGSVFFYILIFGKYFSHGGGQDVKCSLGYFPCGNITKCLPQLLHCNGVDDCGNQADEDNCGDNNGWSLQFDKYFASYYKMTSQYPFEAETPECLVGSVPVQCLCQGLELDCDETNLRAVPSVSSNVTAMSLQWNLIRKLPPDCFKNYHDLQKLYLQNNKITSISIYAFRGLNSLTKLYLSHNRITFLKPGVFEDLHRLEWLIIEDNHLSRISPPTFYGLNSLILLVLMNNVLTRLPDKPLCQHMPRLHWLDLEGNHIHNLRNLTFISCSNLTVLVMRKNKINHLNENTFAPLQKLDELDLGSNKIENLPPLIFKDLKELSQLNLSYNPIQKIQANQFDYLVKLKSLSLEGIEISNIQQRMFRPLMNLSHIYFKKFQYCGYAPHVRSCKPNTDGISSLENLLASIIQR

EC50 [1]	Ki [2]	Binding to 7BP cells (in words) [3]	Molecule
7.94 µM	4.68 µM	–	CC[C@H](C)[C@H](NC(=O)[C@H](C)NC(=O)[C@@H](NC(=O)[C@H](CCC(N)=O)NC(=O)[C@H](C)NC(=O)[C@H](CCCNC(=N)N)NC(=O)[C@@H](NC(=O)[C@H](CC(C)C)NC(=O)[C@H](CCC(=O)O)NC(=O)[C@H](CCCNC(=N)N)NC(=O)CNC(=O)[C@H](CO)NC(=O)[C@H](CC(C)C)NC(=O)[C@H](CCCCN)NC(=O)[C@@H](NC(=O)[C@@H](NC(=O)[C@H](CCC(=O)O)NC(=O)[C@H](CCC(=O)O)NC(=O)[C@H](CCSC)NC(=O)[C@H](Cc1c[nH]c2ccccc12)NC(=O)[C@H](CO)NC(=O)[C@@H](N)CC(=O)O)C(C)C)[C@@H](C)CC)C(C)C)[C@@H](C)CC)C(=O)N[C@@H](CO)C(=O)NCC(=O)N[C@@H](CCSC)C(=O)N[C@@H](CO)C(=O)N[C@H](C(=O)N[C@@H](Cc1c[nH]c2ccccc12)C(=O)N[C@@H](CO)C(=O)N[C@@H](CCCCN)C(=O)N[C@@H](CCCNC(=N)N)C(=O)N[C@@H](CO)C(=O)N[C@@H](CC(C)C)C(N)=O)[C@@H](C)O [B1-33 C11.23S] (H-DSWMEEVIKLSGRELVRAQIAISGMSTWSKRSL-NH2)
> 10 µM	> 10 µM	–	CC[C@H](C)[C@H](NC(=O)[C@H](C)NC(=O)[C@@H](NC(=O)[C@H](CCC(N)=O)NC(=O)[C@H](C)NC(=O)[C@H](CCCNC(=N)N)NC(=O)[C@@H](NC(=O)[C@H](CC(C)C)NC(=O)[C@H](CCC(=O)O)NC(=O)[C@H](CCCNC(=N)N)NC(=O)CNC(=O)[C@H](CO)NC(=O)[C@H](CC(C)C)NC(=O)[C@H](CCCCN)NC(=O)[C@@H](NC(=O)[C@@H](N)C(C)C)[C@@H](C)CC)C(C)C)[C@@H](C)CC)C(=O)N[C@@H](CO)C(=O)NCC(=O)N[C@@H](CCSC)C(=O)N[C@@H](CO)C(=O)N[C@H](C(=O)N[C@@H](Cc1c[nH]c2ccccc12)C(=O)N[C@@H](CO)C(N)=O)[C@@H](C)O [B7-29 C11.23S] (H-VIKLSGRELVRAQIAISGMSTWS-NH2; N-terminus assumed)
> 10 µM	0.302 µM	–	CC[C@H](C)[C@H](NC(=O)[C@H](C)NC(=O)[C@@H](NC(=O)[C@H](CCC(N)=O)NC(=O)[C@H](C)NC(=O)[C@H](CCCCNC(=N)N)NC(=O)[C@@H](NC(=O)[C@H](CC(C)C)NC(=O)[C@H](CCC(=O)O)NC(=O)[C@H](CCCNC(=N)N)NC(=O)CNC(=O)[C@H](CO)NC(=O)[C@H](CC(C)C)NC(=O)[C@H](CCCCN)NC(=O)[C@@H](NC(=O)[C@@H](N)C(C)C)[C@@H](C)CC)C(C)C)[C@@H](C)CC)C(=O)N[C@@H](CO)C(=O)NCC(=O)N[C@@H](CCSC)C(=O)N[C@@H](CO)C(=O)N[C@H](C(=O)N[C@@H](Cc1c[nH]c2ccccc12)C(=O)N[C@@H](CO)C(=O)N[C@@H](CCCCN)C(=O)N[C@@H](CCCNC(=N)N)C(=O)N[C@@H](CO)C(=O)N[C@@H](CC(C)C)C(N)=O)[C@@H](C)O [B7-33 C11.23S R17HR] (H-VIKLSGRELV[hArg]AQIAISGMSTWSKRSL-NH2)
> 10 µM	> 10 µM	–	CC[C@H](C)[C@H](NC(=O)[C@H](C)NC(=O)[C@@H](NC(=O)[C@H](CCC(N)=O)NC(=O)[C@H](C)NC(=O)[C@H](CCCCN)NC(=O)[C@@H](NC(=O)[C@H](CC(C)C)NC(=O)[C@H](CCC(=O)O)NC(=O)[C@H](CCCNC(=N)N)NC(=O)CNC(=O)[C@H](CO)NC(=O)[C@H](CC(C)C)NC(=O)[C@H](CCCCN)NC(=O)[C@@H](NC(=O)[C@@H](N)C(C)C)[C@@H](C)CC)C(C)C)[C@@H](C)CC)C(=O)N[C@@H](CO)C(=O)NCC(=O)N[C@@H](CCSC)C(=O)N[C@@H](CO)C(=O)N[C@H](C(=O)N[C@@H](Cc1c[nH]c2ccccc12)C(=O)N[C@@H](CO)C(=O)N[C@@H](CCCCN)C(=O)N[C@@H](CCCNC(=N)N)C(=O)N[C@@H](CO)C(=O)N[C@@H](CC(C)C)C(N)=O)[C@@H](C)O [B7-33 C11.23S R17K] (H-VIKLSGRELVKAQIAISGMSTWSKRSL-NH2; N-terminus assumed)
1.55 µM	> 10 µM	–	CC[C@H](C)[C@H](NC(=O)[C@H](C)NC(=O)[C@@H](NC(=O)[C@H](CCC(N)=O)NC(=O)[C@H](C)NC(=O)[C@H](CCNC(=N)N)NC(=O)[C@@H](NC(=O)[C@H](CC(C)C)NC(=O)[C@H](CCC(=O)O)NC(=O)[C@H](CCCNC(=N)N)NC(=O)CNC(=O)[C@H](CO)NC(=O)[C@H](CC(C)C)NC(=O)[C@H](CCCCN)NC(=O)[C@@H](NC(=O)[C@@H](N)C(C)C)[C@@H](C)CC)C(C)C)[C@@H](C)CC)C(=O)N[C@@H](CO)C(=O)NCC(=O)N[C@@H](CCSC)C(=O)N[C@@H](CO)C(=O)N[C@H](C(=O)N[C@@H](Cc1c[nH]c2ccccc12)C(=O)N[C@@H](CO)C(=O)N[C@@H](CCCCN)C(=O)N[C@@H](CCCNC(=N)N)C(=O)N[C@@H](CO)C(=O)N[C@@H](CC(C)C)C(N)=O)[C@@H](C)O [B7-33 C11.23S R17NR] (H-VIKLSGRELV[Agb]AQIAISGMSTWSKRSL-NH2)
> 10 µM	> 10 µM	–	CC[C@H](C)[C@H](NC(=O)[C@H](C)NC(=O)[C@H](C)NC(=O)[C@H](CCC(N)=O)NC(=O)[C@H](C)NC(=O)[C@H](CCCNC(=N)N)NC(=O)[C@@H](NC(=O)[C@H](CC(C)C)NC(=O)[C@H](CCC(=O)O)NC(=O)[C@H](CCCNC(=N)N)NC(=O)CNC(=O)[C@H](CO)NC(=O)[C@H](CC(C)C)NC(=O)[C@H](CCCCN)NC(=O)[C@@H](NC(=O)[C@@H](NC(C)=O)C(C)C)[C@@H](C)CC)C(C)C)C(=O)N[C@@H](CO)C(=O)NCC(=O)N[C@@H](CCSC)C(=O)N[C@@H](CO)C(=O)N[C@H](C(=O)N[C@@H](Cc1c[nH]c2ccccc12)C(=O)N[C@@H](CO)C(=O)N[C@@H](CCCCN)C(=O)N[C@@H](CCCNC(=N)N)C(=O)N[C@@H](CO)C(=O)N[C@@H](CC(C)C)C(N)=O)[C@@H](C)O [R20A (AcB7-33 C11.23S)] (Ac-VIKLSGRELVRAQAAISGMSTWSKRSL-NH2)
–	–	strongly bind to 7BP cells	VIKLCGRELVRAQIAICGMSTWSKRSL-NH2 [Native B7-33]
